Paper PMC8398847, “Isavuconazole: Thermodynamic Evaluation of Processes Sublimation, Dissolution and Partition in Pharmaceutically Relevant Media” (Molecules, 2021)

How the values were obtained:
[1] = set-up: method as in earlier work; settings: cited from earlier work
[2] = Vapor pressure by transpiration (inert gas-carrier transfer) method; sublimation thermodynamic functions; format: physicochemical; settings: test of the technique with the standard
Procedure: The thermodynamic functions of sublimation were calculated as the fitting coefficients of the Clarke and Glew equation [17]:(1) Rlnp/p^0=ΔcrgGm°(θ)/θ+ΔcrgHm°(θ)(1/θ−1/T)+ΔcrgCp,m°(θ)(θ/T−1+lnT/θ) where ΔcrgHm°(θ) is the standard molar sublimation enthalpy, ΔcrgGm°(θ) is the standard molar Gibbs energy of sublimation, and ΔcrgCp,m°(θ) is the difference between the constant pressure standard molar heat capacity Cp,m°(g) of the gaseous compound and the constant pressure standard molar heat capacity Cp,m°(cr) of the crystalline compound. The value is the arbitrary reference temperature θ = 298.15 K; p^0 = 10^5 Pa is the reference pressure.
The transpiration method was used for the sublimation experiment. A stream of an inert gas (nitrogen) was passed over a sample at the constant temperature and flow rate; saturation of the gas with the substance vapor was achieved by low transpiration rate of gas. Then, the sublimated quantity of condensed vapor was determined. The volume of the inert gas and the amount of the sublimated material were used for calculation the vapor pressure over the sample of compound at this temperature. The following procedure was used for determination the amount of sublimed substance. The condensed sample was dissolved in a known volume of solvent Vsol. The mass of the substance was determined by the measurement of absorbance A of its solution (spectrophotometer Cary-50, Varian, Palo Alto, CA, USA, Software Version 3.00 (339)). According to the Lambert–Beer law the concentration of the solution c (mol·L^−1) can express knowing a value of the extinction coefficient ε (l·mol^−1·cm^−1) of the studied compound dissolved in the solvent and an absorbing path length (l):A = εcl(5) where l is an absorbing path length. Calculation the mass of sublimed compound was performed according to the equation:m = cVsolM(6)
M is the molar mass of the studied substance.
The vapor pressure p at each temperature was determined from the amount of the substance collected within a known time:p = mRTa/VM(7) where V is the volume of the gaseous nitrogen evaluated from the time measurement and the flow rate at the flow meter temperature Ta and the atmospheric pressure. Uncertainties for transpiration experiment parameters (T, m, Ta, V) are reported as standard deviations (Table 1). The combined standard uncertainty of vapor pressure measurements were estimated taking into account uncertainties of all variables involved in eq 7.
The details of equipment and experimental procedure are given in [33]. The sublimation technique was tested with benzoic acid as standard. The experimental vapor pressure values were obtained in the temperature interval of (307–385) K and were in good agreement with the results of studies within the limits of experimental error (Figure S7). The standard sublimation enthalpy of benzoic acid measured by us was 90.5 ± 0.3 kJ·mol^−1 and consistent with recommended by IUPAC value—89.7 ± 0.5 kJ·mol^−1 [38]. Each experiment at fixed temperature was repeated three times with the standard deviation of up to 5%.

For `O=C(O)c1ccccc1` [benzoic acid], the “standard sublimation enthalpy recommended by IUPAC” value [1] is listed as 21.4 ± 0.12 kcal/mol and the standard sublimation enthalpy [2] is listed as 21.6 ± 0.072 kcal/mol.
